Values joined by “and” are separate entries in the source; they are usually repeats but may differ in a detail not shown here. Equal values may be shown once.
Key:
[1] = Presence of cannabinoids in exhaled breath before and after smoking (LC-HRMS); assay type: in vivo, human
Description: (§1) The positive recent use test results outside of the three-hour impairment window based on blood sampling alone led to the incorporation of a second testing matrix, exhaled breath, to strengthen the results of the test method so that cannabis users who are within the impairment window after smoking can be more accurately identified. For this purpose, a total of 44 additional subjects were evaluated in a smoking study in which both exhaled breath and blood samples were collected and then analyzed by LC-HRMS for cannabinoids and Δ^9-THC metabolites. As with the 48-subject blood-based study, subjects were given a 500-mg cannabis cigarette to smoke, and breath and blood samples were collected at various time points before and after smoking.

[2] = separate 20-subject and 23-subject studies (Lynch; Olla); cited from earlier work
[3] = Cannabinoids and Δ^9-THC metabolites in capillary blood (LC-HRMS); details: pre-smoking
Description: The complex nature of cannabinoid pharmacokinetics and pharmacodynamics calls for a new approach for effectively determining recent use of cannabis within the impairment window. We sought to develop a multiple-parameter test based on pharmacological changes in Δ^9-THC and its metabolites in blood over time. This approach requires the collection of two samples separated by a known time interval, which is a critical difference compared to current blood testing methods that rely on the collection of a single sample. The two-sample strategy makes possible the detection of Δ^9-THC in its distribution phase where the half-life is very short [Moeller M R. et al., J Forensic Sci 37:969-83 (1992); Wall M E. et al., Clin Pharmacol Ther 34:352-63 (1983)], which occurs only within the first few hours after smoking, and for the evaluation of how Δ^9-THC metabolite levels in blood are changing with time relative to Δ^9-THC. A liquid chromatography high-resolution mass spectrometry (LC-HRMS) bioanalytical method for the quantification of cannabinoids in microsamples (50 μL) of whole blood was developed and validated for this purpose [DeGregorio M W. et al., J AOAC Int 103:725-35 (2020)].
A total of 92 subjects were included in clinical trials designed to evaluate the feasibility of the described method for determining recent cannabis use (blood-based study in 48 subjects) and recent cannabis use and impairment (breath- and blood-based study in 44 subjects). Each subject was given a single cannabis cigarette and instructed to smoke as much of it as possible within a 10-minute period. Cigarettes containing 500 mg of dried cannabis flower were prepared immediately before each smoking session. During the studies, subjects were given a variety of cannabis chemovars to smoke, with Δ^9-THC content ranging from a low of 8.5% to a high of 28.4%. A wide variety of chemovars was included to account for the variability in Δ^9-THC potencies available in numerous cannabis retail establishments in the various U.S. states where recreational and/or medicinal cannabis has been legalized. Capillary blood samples ([…] collected at various time points prior to smoking and up to 200 minutes after smoking, were obtained from a total of 92 subjects using a variety of methods including lancets and two types of automated blood collection devices. Exhaled breath samples were collected from a total of 44 subjects at various time points prior to smoking and up to 240 minutes post-smoking. Breath samples were collected using devices equipped with electrostatic polymer filters and that are designed to collect approximately 20 L of exhaled breath through normal breathing. The time required for breath sample collection was approximately 2-3 minutes. A total of 74 subjects were asked to self-assess their level of impairment before smoking and at each designated sampling time point after smoking based on a scale ranging from 0 (not impaired) to 10 (very impaired) as shown in FIG. 2. As a physical indicator of impairment, 44 subjects were evaluated for horizontal gaze nystagmus.
One of the first endpoints investigated during clinical development of the recent use test method was whether there is any relationship between blood Δ^9-THC levels and impairment. Prior to smoking, Δ^9-THC blood concentrations were evaluated in a group of 30 subjects before and up to 200 minutes after smoking a 500-mg cannabis cigarette and compared to a common legal limit (5 ng/mL) for establishing driver impairment due to cannabis.

[4] = Stability of target analytes in the breath collection device; assay type: physicochemical
Description: In particular, CBN, CBG, and Δ^9-THCV all have a much greater incidence in breath during peak impairment (the first hour after smoking) compared to pre-smoking. […] Stability of the analytes within the breath collection devices was previously established (see Table 4 below).

[5] = Cannabinoid half-lives in exhaled breath, multi-point breath sampling; assay type: in vivo, human; details: for Cannabinoid Half-Lives (min) in breath, back-to-back sampling: individual subject
Description: as §1
These included the presence of CBN, CBC, CBG, Δ^9-THCV, and CBGA, and short half-lives (<60 minutes) for Δ^9-THC, CBN, CBC, CBG, and Δ^9-THCV (see Table 5 below). […] Pre-smoking, half-lives were calculable for Δ^9-THC in only three subjects.
Evidence of recent cannabis use by inhalation through smoking or vaping dissipates rapidly in exhaled breath, and thus allowing 20 minutes between breath samplings, which was employed in the blood-based study and for most of the subjects in the blood and breath-based study, may result in the loss of valuable data. In the last nine subjects involved in the exhaled breath study, a back-to-back sample collection strategy was employed whereby two exhaled breath samples were collected in quick succession at 20 and 40 minutes post-smoking. Approximately two minutes elapsed between the collection of each sample. The very short half-lives observed for Δ^9-THC, CBN, and other cannabinoids (approximately five minutes or less) in exhaled breath would allow for rapid sampling (see Table 6 below).

[6] = Breath/blood Δ^9-THC ratio; details: all 44 subjects
Description: We hypothesized that the incorporation of both exhaled breath and blood into a comprehensive recent cannabis use test would confirm recent use of inhaled cannabis within the impairment window, improving the accuracy of the two-point breath testing method. For this purpose, blood samples were collected from the 44 subjects in addition to breath samples and analyzed for Δ^9-THC and other cannabinoids. […] This ratio was computed by dividing the Δ^9-THC peak area ratio to the internal standard in breath by the corresponding peak area ratio in blood.

## CCCCCc1cc(O)c2c(c1)OC(C)(C)[C@@H]1CCC(C)=C[C@@H]21 [Δ^9-THC, Δ^9-tetrahydrocannabinol]
[1]; >60 minutes after smoking
  Presence in exhaled breath, Percent (%) Positivity: (92.5%)
  Presence in exhaled breath, positive/evaluable subjects: 37/40
[1]; Baseline (Pre-smoking)
  Presence in exhaled breath, positive/evaluable subjects: 23/34
[1]; ≤60 minutes after smoking
  Presence in exhaled breath, Percent (%) Positivity: (100%)
  Presence in exhaled breath, positive/evaluable subjects: 40/40
[2]
  pre-smoking detection rates of Δ^9-THC in breath: 100%
[3]
  detection in subjects' blood samples at baseline prior to smoking: detected
[3]; 12-24 h abstinence, n=30
  average baseline Δ^9-THC concentration in blood: 10.5 ± 15 ng/mL
[3]; 16 of 30 subjects
  baseline Δ^9-THC levels in blood: exceeded 5 ng/mL
[3]; n=30
  median baseline Δ^9-THC concentration in blood: 6.4 ng/mL
[4]; Day 3, breath collection device
  Analyte Stability (%) at Room Temperature (20-25° C.): 91.3%
[4]; Day 7, breath collection device
  Analyte Stability (%) at Room Temperature (20-25° C.): 81.2%
[4]; Day 10, breath collection device
  Analyte Stability (%) at Room Temperature (20-25° C.): 82.9%
[4]; Day 14, breath collection device
  Analyte Stability (%) at Room Temperature (20-25° C.): 66.2%
[4]; Day 30, breath collection device
  Analyte Stability (%) at Room Temperature (20-25° C.): 55.6%
[5]; 0-10 Minutes Post-Smoking
  Average Half-Life (minutes ± SD) in breath: 4.4 ± 2.2 min
[5]; 0-20 Minutes Post-Smoking
  Average Half-Life (minutes ± SD) in breath: 4.2 ± 2.1 min
[5]; 20-40 Minutes Post-Smoking
  Average Half-Life (minutes ± SD) in breath: 8.1 ± 2.3 min
[5]; 20-60 Minutes Post-Smoking
  Average Half-Life (minutes ± SD) in breath: 12.8 ± 8.8 min
[5]; 20 Minutes Post-Smoking
  Cannabinoid Half-Lives (min) in breath, back-to-back sampling, Average: 3.5 min and 2.2 min
  Cannabinoid Half-Lives (min) in breath, back-to-back sampling: 1.9 min (2×) and 2.3 min and 2.1 min and 2.9 min and 2.8 min and 1.0 min and 1.4 min and 1.6 min and 7.3 min and 3.8 min and 11.8 min and 1.2 min and 0.9 min
[5]; 40-60 Minutes Post-Smoking
  Average Half-Life (minutes ± SD) in breath: 24.4 ± 25.4 min
[5]; 40 Minutes Post-Smoking
  Cannabinoid Half-Lives (min) in breath, back-to-back sampling, Average: 6.1 min
  Cannabinoid Half-Lives (min) in breath, back-to-back sampling: 2.2 min and 9.9 min and 3.7 min and 5.9 min and 8.6 min
[5]; 60-80 Minutes Post-Smoking
  Average Half-Life (minutes ± SD) in breath: 35.0 ± 41.7 min
[5]; Pre-Smoking
  Average Half-Life (minutes ± SD) in breath: 28.8 ± 28.7 min
[5]; approximate, summary statement
  half-lives observed in exhaled breath: five
[6]; immediately after smoking
  breath/blood Δ^9-THC ratio: > 2
[6]; within the first hour after smoking
  breath/blood Δ^9-THC ratio: ≥ 2

From patent US20240027479A1, “A Comprehensive Breath Test that Confirms Recent Use of Inhaled Cannabis within the Impairment Window” (RCU Labs, Inc., priority 2018, published 2024)
